# Measured values as given in patent US20090291971A1, “HETEROARYL ETHERS AND PROCESSES FOR THEIR PREPARATION” (Wyeth, priority 2007, published 2009).
# Experiments:
# Assay type in all cases: biochemical
# PI3K alpha = PI3K alpha (Homo sapiens, UniProt P42336); experiment: PI3 Kinase Assay (PI3K alpha)
# Protocol: (§1) PI3-Kinase reactions were performed in […], pH 7, […], and 25 μM ATP, with diC8-PI(4,5)P2 (Echelon, Salt Lake City Utah) as substrate. Nunc 384 well black polypropylene fluorescent plates were used for PI3K assays. Reactions were quenched by the addition of EDTA to a final concentration of […]. Final reaction volumes were […]. For evaluation of PI 3-K inhibitors, 5 ng of enzyme and 2.5 μM of substrate was used per […] reaction volume, and inhibitor concentrations ranged from 100 μM to […]; the final level of DMSO in reactions never exceeded 2%. Reactions were allowed to proceed for one hour at 25° C. After 1 hour, GST-tagged GRP1 (general receptor for phosphoinositides) PH domain fusion protein was added to a final concentration of 100 nM, and BODIPY-TMRI(1,3,4,5)P4 (Echelon) was also added to a final concentration of 5 nM. Final sample volumes were 25 μl with a final DMSO concentration of 0.8%. Assay Plates were read on Perkin-Elmer Envision plate readers with appropriate filters for Tamra [BODIPY-TMRI(1,3,4,5)P4]. Data obtained were used to calculate enzymatic activity and enzyme inhibition by inhibitor compounds.
# human recombinant MK2 = molecular target: T1, human recombinant MK2 (Homo sapiens, UniProt P49137); experiment: MK2 kinase ELISA based assay
# T1 construct: human recombinant MK2 (25 nM) containing residues 41 through 353
# T1 sequence (P49137 41-353): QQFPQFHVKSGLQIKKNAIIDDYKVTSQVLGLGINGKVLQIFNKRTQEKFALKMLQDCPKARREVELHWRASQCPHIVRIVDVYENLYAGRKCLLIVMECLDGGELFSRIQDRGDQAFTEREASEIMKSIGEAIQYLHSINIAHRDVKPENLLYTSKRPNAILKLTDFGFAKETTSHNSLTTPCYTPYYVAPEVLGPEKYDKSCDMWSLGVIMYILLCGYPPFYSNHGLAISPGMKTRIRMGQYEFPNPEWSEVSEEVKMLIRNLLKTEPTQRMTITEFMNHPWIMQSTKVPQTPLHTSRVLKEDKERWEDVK
# Protocol: MK2 kinase activity was assessed using human recombinant MK2 (25 nM) containing residues 41 through 353 in an ELISA based assay. The kinase reaction was performed on 96-well streptavidin coated plates using a biotinylated 16-mer peptide as a substrate derived from LSP1 in 20 mM Hepes pH7.4, 10 mM MgCl2, 3 mM DTT, 1 uM ATP, 0.01% Triton X100, 2% DMSO and various compound concentrations in a final volume of 100 ul. The reaction was stopped after 30 min incubation at room temperature with 50 ul of 0.5M EDTA and washed 6 times in PBS 0.05% Tween 20. Polyclonal anti phospho-LSP1 antibodies was then added to the plate along with a Goat anti-Rabbit antibody labeled with europium in 20 mM MOPS, 150 mM NaCl, 0.025% Tween 20, 0.02% gelatin, 1% BSA for 1 hour at room temperature. The plate was then washed 6 times in PBS 0.05% Tween 20 and enhancement solution from Perkin Elmer was added before counting on a Victor 2 reader from Perkin Elmer.
# PI3K gamma = PI3K gamma (Homo sapiens, UniProt P48736); experiment: PI3 Kinase Assay (PI3K gamma); settings: 1 h
# PI3K gamma, sequence (P48736 whole entry, species assumed): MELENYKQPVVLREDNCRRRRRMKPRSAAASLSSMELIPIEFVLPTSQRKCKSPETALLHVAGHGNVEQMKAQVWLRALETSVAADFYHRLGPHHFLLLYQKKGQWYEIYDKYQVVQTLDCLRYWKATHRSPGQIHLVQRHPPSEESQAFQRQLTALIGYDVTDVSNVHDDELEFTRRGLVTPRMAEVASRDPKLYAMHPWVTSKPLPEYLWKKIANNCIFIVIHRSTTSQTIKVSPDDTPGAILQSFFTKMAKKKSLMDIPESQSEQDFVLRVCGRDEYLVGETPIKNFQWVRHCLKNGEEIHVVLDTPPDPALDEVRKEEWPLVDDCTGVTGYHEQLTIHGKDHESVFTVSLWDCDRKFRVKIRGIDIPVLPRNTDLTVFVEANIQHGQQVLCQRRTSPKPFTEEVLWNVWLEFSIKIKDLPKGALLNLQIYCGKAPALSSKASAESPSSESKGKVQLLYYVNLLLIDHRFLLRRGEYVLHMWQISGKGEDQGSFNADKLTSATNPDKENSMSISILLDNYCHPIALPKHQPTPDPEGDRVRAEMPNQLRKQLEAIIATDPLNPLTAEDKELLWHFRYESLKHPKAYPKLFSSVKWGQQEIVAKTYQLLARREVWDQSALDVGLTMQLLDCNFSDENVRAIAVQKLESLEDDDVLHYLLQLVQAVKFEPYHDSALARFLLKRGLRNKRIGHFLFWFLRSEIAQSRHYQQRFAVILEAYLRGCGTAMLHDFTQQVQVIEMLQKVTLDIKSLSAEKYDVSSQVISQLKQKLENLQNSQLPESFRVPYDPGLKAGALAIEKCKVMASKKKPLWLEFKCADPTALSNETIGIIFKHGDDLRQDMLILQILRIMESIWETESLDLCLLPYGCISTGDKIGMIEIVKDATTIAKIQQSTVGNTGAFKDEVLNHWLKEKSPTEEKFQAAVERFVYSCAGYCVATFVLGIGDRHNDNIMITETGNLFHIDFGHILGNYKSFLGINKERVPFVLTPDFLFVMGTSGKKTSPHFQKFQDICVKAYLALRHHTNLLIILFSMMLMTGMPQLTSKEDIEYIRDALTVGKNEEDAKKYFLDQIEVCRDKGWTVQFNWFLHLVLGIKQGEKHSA
# Protocol: as §1
# human recombinant IRAK4 = molecular target: T2, human recombinant IRAK4 (Homo sapiens, UniProt Q9NWZ3); experiment: IRAK4 kinase ELISA based assay
# T2 construct: human recombinant IRAK4 (4 nM) containing residues 154 through 460
# T2 sequence (Q9NWZ3 154-460): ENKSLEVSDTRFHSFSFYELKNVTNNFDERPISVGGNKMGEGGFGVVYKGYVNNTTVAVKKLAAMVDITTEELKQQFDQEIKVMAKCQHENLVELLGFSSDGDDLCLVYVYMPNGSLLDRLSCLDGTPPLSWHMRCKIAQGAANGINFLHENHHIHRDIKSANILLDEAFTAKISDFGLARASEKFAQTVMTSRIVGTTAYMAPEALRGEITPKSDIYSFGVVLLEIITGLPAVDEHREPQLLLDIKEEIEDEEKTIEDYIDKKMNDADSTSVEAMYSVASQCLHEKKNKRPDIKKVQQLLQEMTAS
# Protocol: IRAK4 kinase activity was assessed using human recombinant IRAK4 (4 nM) containing residues 154 through 460 in an ELISA based assay. The kinase reaction was performed on 96-well streptavidin coated plates using a biotinylated 11-mer peptide derived from MK2 in 20 mM Hepes pH7.4, 10 mM MgCl2, 3 mM DTT, 600 uM ATP, 0.01% Triton X100, 5% DMSO and various compound concentrations in a final volume of 100 ul. The reaction was stopped after 60 min incubation at room temperature with 50 ul of 0.5M EDTA and washed 6 times in PBS 0.05% Tween 20. A Rabbit polyclonal anti-phospho-threonine antibody was then added to the plate along with a Goat anti-Rabbit antibody labeled with europium in 20 mM MOPS, 150 mM NaCl, 0.025% Tween 20, 0.02% gelatin, 1% BSA for 1 hour at room temperature. The plate was then washed 6 times in PBS 0.05% Tween 20 and enhancement solution from Perkin Elmer was added before counting on a Victor 2 reader from Perkin Elmer.
# recombinant human B-Raf = molecular target: T3, recombinant human B-Raf (Homo sapiens, UniProt P15056); experiment: B-Raf Kinase Assay
# T3 construct: Flag; GST; purchased Upstate; host or cells: Sf21 insect cells
# T3 sequence (P15056 whole entry): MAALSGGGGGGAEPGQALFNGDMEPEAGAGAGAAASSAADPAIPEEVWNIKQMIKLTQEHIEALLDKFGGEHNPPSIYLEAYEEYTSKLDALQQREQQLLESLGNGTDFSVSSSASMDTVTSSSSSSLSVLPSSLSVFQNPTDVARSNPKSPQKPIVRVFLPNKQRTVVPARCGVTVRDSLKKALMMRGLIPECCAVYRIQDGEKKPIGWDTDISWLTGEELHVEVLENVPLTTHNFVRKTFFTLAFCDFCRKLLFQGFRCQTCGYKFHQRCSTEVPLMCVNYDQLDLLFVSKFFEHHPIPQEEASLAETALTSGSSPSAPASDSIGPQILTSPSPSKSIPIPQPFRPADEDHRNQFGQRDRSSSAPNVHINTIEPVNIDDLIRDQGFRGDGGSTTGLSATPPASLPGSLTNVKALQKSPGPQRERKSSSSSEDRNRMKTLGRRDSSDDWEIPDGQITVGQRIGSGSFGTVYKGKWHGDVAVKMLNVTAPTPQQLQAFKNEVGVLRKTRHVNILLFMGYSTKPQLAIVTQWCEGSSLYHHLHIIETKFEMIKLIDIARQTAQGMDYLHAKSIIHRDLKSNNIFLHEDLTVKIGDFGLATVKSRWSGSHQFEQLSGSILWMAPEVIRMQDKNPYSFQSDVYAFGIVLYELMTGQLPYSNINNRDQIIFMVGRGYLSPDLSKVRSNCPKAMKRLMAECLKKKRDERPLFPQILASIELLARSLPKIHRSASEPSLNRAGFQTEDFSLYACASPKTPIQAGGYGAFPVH
# Protocol: Reagents: Flag/GST-tagged recombinant human B-Raf produced in Sf21 insect cells (purchased from Upstate), human Mek-1-GST, non-active recombinant protein produced in E. coli (from Upstate); and a phospho-MEK1 specific poly-clonal Ab from Cell Signaling Technology (cat. #9121).
# • B-Raf-1 is used to phosphorylate GST-MEK1. MEK1 phosphorylation is measured by a phospho-specific antibody (from Cell Signaling Technology, cat. #9121) that detects phosphorylation of two serine residues at positions 217 and 221 on MEK1.
# 1. Assay Dilution Buffer (ADB): 20 mM MOPS, pH 7.2, 25 mM β-glycerol phosphate, 5 mM EGTA, 1 mM sodium orthovanadate, 1 mM dithiothreitol, 0.01% Triton X-100. 2. Magnesium/ATP Cocktail: ADB solution (minus Triton X-100) plus 200 μM cold ATP and 40 mM magnesium chloride. 3. Active Kinase: Active B-Raf: used at 0.2 nM per assay point. 4. Non-active GST-MEK1: Use at 2.8 nM final concentration). 5. TBST-Tris (50 mM, pH 7.5), NaCl (150 mM), Tween-20 (0.05%)
# 7. Anti pMEK Ab (Upstate) 8. Anti-rabbit Ab/Europium conjugate (Wallac)
# 1. Add 25 μl of ADB containing B-Raf and Mek per assay (i.e. per well of a 96 well plate) 2. Add 25 μl of 0.2 mM ATP and 40 mM magnesium chloride in Magnesium/ATP Cocktail. 3. Incubate for 45 minutes at RT with occasional shaking. 4. Transfer this mixture to an anti-GST Ab coated 96 well plate (Nunc Immunosorb plates coated o/n with a-GST. Plate freshly washed 3× with TBS-T before use. 5. Incubate o/n at […] in cold room. 6. Wash 3× with TBST, add Anti-Phospho MEK1 (1:1000, dilution depends upon lot) 7. Incubate for 60 minutes at RT in a shaking incubator 8. Wash 3× with TBST, add Anti-rabbit Ab/Europium conjugate (Wallac) (1:500, dilution depends upon lot) 9. Incubate for 60 minutes at RT on a platform shaker. 10. Wash plate 3× with TBS-T 11. Add 100 ul of Wallac Delfia Enhancement Solution and shake for 10 minutes. 12. Read plates in Wallac Victor model Plate Reader. 13. Collect data analyze in Excel for single point and IC50 determinations.
# PI3K alpha, sequence (P42336 whole entry, species assumed, the tested form may be a part): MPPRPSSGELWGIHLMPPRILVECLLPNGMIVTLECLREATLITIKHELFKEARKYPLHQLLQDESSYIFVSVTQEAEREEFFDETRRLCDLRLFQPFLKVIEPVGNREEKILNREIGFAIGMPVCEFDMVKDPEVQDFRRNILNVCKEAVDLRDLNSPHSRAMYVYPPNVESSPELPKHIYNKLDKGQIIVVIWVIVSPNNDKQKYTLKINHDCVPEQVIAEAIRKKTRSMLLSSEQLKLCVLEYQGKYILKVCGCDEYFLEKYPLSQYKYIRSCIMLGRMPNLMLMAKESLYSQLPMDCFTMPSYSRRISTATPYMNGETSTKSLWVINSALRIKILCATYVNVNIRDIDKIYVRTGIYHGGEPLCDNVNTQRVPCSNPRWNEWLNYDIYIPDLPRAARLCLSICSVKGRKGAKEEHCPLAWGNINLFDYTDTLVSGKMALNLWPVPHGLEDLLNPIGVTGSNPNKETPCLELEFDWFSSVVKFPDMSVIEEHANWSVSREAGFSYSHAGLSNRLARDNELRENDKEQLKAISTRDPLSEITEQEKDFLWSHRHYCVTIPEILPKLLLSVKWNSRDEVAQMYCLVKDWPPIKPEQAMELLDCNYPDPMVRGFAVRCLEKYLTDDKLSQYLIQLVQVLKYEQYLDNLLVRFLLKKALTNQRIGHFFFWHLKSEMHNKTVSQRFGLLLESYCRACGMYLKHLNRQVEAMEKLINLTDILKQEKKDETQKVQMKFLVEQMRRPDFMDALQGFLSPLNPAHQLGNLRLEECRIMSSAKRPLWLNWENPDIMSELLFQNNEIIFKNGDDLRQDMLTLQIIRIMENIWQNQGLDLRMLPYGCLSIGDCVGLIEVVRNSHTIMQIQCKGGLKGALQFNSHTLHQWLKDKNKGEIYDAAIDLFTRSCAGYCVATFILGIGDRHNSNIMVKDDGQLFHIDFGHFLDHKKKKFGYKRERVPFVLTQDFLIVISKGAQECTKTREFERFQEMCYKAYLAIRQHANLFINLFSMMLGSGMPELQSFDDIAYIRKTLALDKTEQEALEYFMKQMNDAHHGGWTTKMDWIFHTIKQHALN
# PI3K alpha, sequence (P27986 whole entry partner, species assumed, the tested form may be a part): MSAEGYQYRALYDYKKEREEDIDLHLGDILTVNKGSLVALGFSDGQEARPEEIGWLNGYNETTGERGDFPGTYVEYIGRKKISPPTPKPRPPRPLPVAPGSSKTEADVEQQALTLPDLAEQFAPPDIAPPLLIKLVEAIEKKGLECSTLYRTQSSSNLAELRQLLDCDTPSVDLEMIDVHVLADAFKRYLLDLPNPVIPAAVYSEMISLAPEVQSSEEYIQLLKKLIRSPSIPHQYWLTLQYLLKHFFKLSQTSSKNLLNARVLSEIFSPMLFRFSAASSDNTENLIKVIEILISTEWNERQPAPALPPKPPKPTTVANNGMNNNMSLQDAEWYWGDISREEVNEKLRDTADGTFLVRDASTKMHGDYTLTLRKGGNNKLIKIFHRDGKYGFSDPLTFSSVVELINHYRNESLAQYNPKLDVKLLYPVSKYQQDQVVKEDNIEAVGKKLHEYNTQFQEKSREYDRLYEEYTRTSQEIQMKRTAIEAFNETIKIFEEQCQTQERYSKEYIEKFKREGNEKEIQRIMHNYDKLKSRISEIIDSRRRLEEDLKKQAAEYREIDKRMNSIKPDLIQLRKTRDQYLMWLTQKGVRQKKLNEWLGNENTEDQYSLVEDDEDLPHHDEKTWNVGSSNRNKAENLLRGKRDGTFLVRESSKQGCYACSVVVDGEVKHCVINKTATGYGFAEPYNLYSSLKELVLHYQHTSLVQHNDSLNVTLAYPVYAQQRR
inhibition at 30 µM (PI3K alpha),inhibition at 30 µM (human recombinant MK2),inhibition at 30 µM (PI3K gamma),inhibition at 10 µM (human recombinant IRAK4),inhibition at 10 µM (recombinant human B-Raf),SMILES
65%,–,4%,–,–,"COc1ccc(Oc2ncnc3ccccc23)cc1 [Example 20, 4-(4-Methoxyphenoxy)quinazoline]"
42%,31%,11%,19%,20%,"Clc1ccc(Oc2ncnc3ccccc23)cn1 [Example 25, 4-(6-Chloropyridin-3-yloxy)quinazoline]"
22%,–,< 10%,–,–,"COc1ncccc1Oc1ncnc2ccccc12 [Example 28, 4-(2-Methoxypyridin-3-yloxy)quinazoline]"
34%,–,45%,–,–,"CC(=O)c1ccc(Oc2ncnc3ccccc23)cc1 [Example 22, 1-(4-(Quinazolin-4-yloxy)phenyl)ethanone]"
36%,–,6%,–,–,"FC(F)(F)c1ccc(Oc2ncnc3ccccc23)cc1 [Example 21, 4-(4-(Trifluoromethyl)phenoxy)quinazoline]"
72%,–,44%,–,–,"CC(=O)c1ccccc1Oc1ncc(Br)cn1 [compound 44, 1-[2-(5-Bromo-pyrimidin-2-yloxy)-phenyl]-ethanone]"
46%,–,< 10%,–,–,"COc1ncccc1Oc1ccn(C)c(=O)n1 [Example 59, 4-(2-Methoxypyridin-3-yloxy)-1-methylpyrimidin-2(1H)-one]"
87%,34%,55%,39%,14%,"c1ccc2c(Oc3ccsc3)ncnc2c1 [Example 30, 4-(Thiophen-3-yloxy)quinazoline]"
32%,–,< 10%,–,17%,"Cn1ccc(Oc2ccccc2)nc1=O [Example 58, 1-Methyl-4-phenoxypyrimidin-2(1H)-one]"
24%,–,< 10%,–,–,"O=[N+]([O-])c1cccc(Oc2ncnc3ccccc23)c1 [Example 19, 4-(3-Nitrophenoxy)quinazoline]"
63%,–,36%,–,–,"COC(=O)c1sc2ncnc(Oc3ccccc3)c2c1C [Example 36, Methyl 5-methyl-4-phenoxythieno[2,3-d]pyrimidine-6-carboxylate]"
18%,–,< 10%,–,–,"N#Cc1ccc(Oc2ncnc3ccccc23)cc1 [Example 24, 4-(Quinazolin-4-yloxy)benzonitrile]"

# Second part, the compound before the results:
SMILES,inhibition at 30 µM (PI3K alpha),inhibition at 30 µM (human recombinant MK2),inhibition at 30 µM (PI3K gamma),inhibition at 10 µM (human recombinant IRAK4),inhibition at 10 µM (recombinant human B-Raf)
"COC(=O)c1sc2ncnc(Oc3c(C)noc3C)c2c1C [Example 39, Methyl 4-(3,5-dimethylisoxazol-4-yloxy)-5-methylthieno[2,3-d]pyrimidine-6-carboxylate]",24%,32%,15%,21%,–
"N#Cc1cccc(Oc2ncnc3sccc23)c1 [Example 32, 3-(Thieno[2,3-d]pyrimidin-4-yloxy)benzonitrile]",32%,–,< 10%,–,–
"O=[N+]([O-])c1cccc(Oc2ncnc3sccc23)c1 [Example 34, 4-(3-Nitrophenoxy)thieno[2,3-d]pyrimidine]",14%,–,< 10%,–,–
"c1ccc2c(Oc3ccc4[nH]ccc4c3)ncnc2c1 [Example 29, 4-(1H-Indol-5-yloxy)quinazoline]",68%,–,21%,–,21%
"Cc1noc(C)c1Oc1ncnc2sccc12 [Example 35, 3,5-Dimethyl-4-(thieno[2,3-d]pyrimidin-4-yloxy)isoxazole]",26%,–,11%,–,–
"COc1ncccc1Oc1ncc(Br)cn1 [Example 57, 5-Bromo-2-(2-methoxypyridin-3-yloxy)pyrimidine]",44%,–,< 10%,–,–
"COC(=O)c1sc2ncnc(Oc3cccc([N+](=O)[O-])c3)c2c1C [Example 37, Methyl 5-methyl-4-(3-nitrophenoxy)thieno[2,3-d]pyrimidine-6-carboxylate]",24%,–,16%,–,–
"COC(=O)c1sc2ncnc(Oc3cccc(C#N)c3)c2c1C [Example 38, Methyl 4-(3-cyanophenoxy)-5-methylthieno[2,3-d]pyrimidine-6-carboxylate]",40%,–,23%,–,–
